The numbers were not newly measured in patent publication US20150050358A1, “IMPLANT SUPPORT COMPOSITION AND METHODS OF USE” (REGENTS OF THE UNIVERSITY OF MINNESOTA, priority 2013, published 2015), which cites them from elsewhere.

SMILES strings stand for the structures.

The conditions of the data set: antibiotic solution.

Turning to `Cc1ncc([N+](=O)[O-])n1CCO` [metronidazole], the pH of solution is reported as 4.5-7.0 pH.
